Measurements reported in PubChem BioAssay (NCI).
Several values for one entry are separate records, joined by “and”; a condition that tells them apart may be missing. Equal values may be shown once.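 Cells were grown in 96-well plates and exposed to each compound for 48 hours at five concentrations; endpoints were interpolated linearly between bracketing concentrations, or set to the highest concentration if not reached. GI50 marks 50% less growth. TGI: total growth inhibition.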

Assays:
Test in all cases: DTP human tumour cell line panel, 48 h
[1] = tested on: HOP-92 NSCLC
[2] = tested on: COLO 205 colon
[3] = tested on: MCF7 breast
[4] = tested on: 786-0 renal
[5] = tested on: OVCAR-5 ovarian
[6] = tested on: U251 CNS
[7] = tested on: SF-539 CNS
[8] = tested on: NCI-H460 lung
[9] = tested on: DU-145 prostate
[10] = tested on: SK-MEL-5 melanoma

Structure (SMILES)	TGI [1]	TGI [2] [µM]	TGI [3]	TGI [4] [µM]	TGI [5] [µM]	TGI [6] [µM]	TGI [7]	TGI [8] [µM]	TGI [9] [µM]	TGI [10] [µM]	GI50 [1] [µM]	GI50 [2] [µM]	GI50 [5] [µM]	GI50 [6] [µM]	GI50 [7] [µM]
COC(=O)C(CCSC)NC(=O)CSc1nnc(COc2ccc(Cl)cc2)n1-c1ccccc1 (stereo not given)	34.6 µM	34.9	41.8 µM	30	38.7	30.9	33.7 µM	29.8	33	32.7	–	–	–	–	–
CC(C)(C)c1ccc2c(c1)OCc1n[nH]c(n1)COc1cc(C(C)(C)C)ccc1OCCOCCO2	14.8 µM	12.6	12.8 µM	16	22.6	13.7	21.5 µM	12.7	20.6	4.68	–	–	–	–	–
O=[N+]([O-])c1ccc2nc3c(nc2c1)-c1c2ccccc2cc2cccc-3c12	58 µM	> 100	> 100 µM	> 100	> 100	> 66	40.5 µM	> 100	> 100	> 100	–	–	–	–	–
CC1=CCC[C@H]2[C@](C)(CC3=CC(=O)C4SCCSC4C3=O)[C@@H](C)CC[C@]12C (stereo not given in full)	70.4 µM	35.9	63.8 µM	35	37.5	34.5	40.3 µM	65	66.9	26.7	–	–	–	–	–
O=C(CN=C(CN(c1ccccc1)c1ccccc1)Oc1c(Cl)cc(Cl)cc1Cl)n1cnc2ccccc21	> 100 µM	> 100	> 100 µM	> 100	> 100	> 100	> 100 µM	> 100	> 100	> 100	–	–	–	–	–
CCOC(=O)Cc1nn2c(=O)cc(C)nc2s1	> 100 µM	> 100	> 100 µM	> 100	> 100	> 100	> 100 µM	> 100	> 100	> 100	–	–	–	–	–
Cc1ccsc1C(=S)Nc1ccc(Cl)c(C(=O)OC(C(C)C)C(C)C)c1	61.3 µM	26.1	> 100 µM	> 100	> 100	97.1	> 100 µM	> 100	> 100	33	–	–	–	–	–
CC1=C(C(=O)NNC(=O)CC#N)CC(C(=O)NNC(=O)CC#N)=C(C)N1	> 100 µM	> 100	> 100 µM	> 100	> 100	> 100	> 100 µM	> 100	> 100	> 100	–	–	–	–	–
CC(O)(C(=O)N(O)c1ccc(Cl)cc1)c1ccc(Cl)cc1 (stereo not given)	48.3 µM	33	> 100 µM	> 100	> 100	64.4	> 100 µM	> 100	> 100	48.9	–	–	–	–	–
COC(=O)c1sc2ncc3c(c2c1N)CC(C)CC3 (stereo not given)	> 100 µM	> 100	> 100 µM	> 100	> 100	> 100	> 100 µM	> 100	> 100	> 100	–	–	–	–	–
COCC(=O)OC1CCn2c1nc1c2C(=O)C(C)=C(NC(C)=O)C1=O (stereo not given)	2.95 µM and 4.62 µM	29.9	3.53 µM and 3.75 µM	18.4	21.6	17.4	3.85 µM and 9.32 µM	38.2	22.2	26.8	1.38	8.72	5.91	4.36	2.14
COP(=O)(CC(=O)C1OC(OCc2ccccc2)C(OCc2ccccc2)C(OCc2ccccc2)C1OCc1ccccc1)OC (stereo not given)	85.7 µM	15	37.4 µM	> 100	> 100	> 100	40.7 µM	38.4	> 100	16.8	–	–	–	–	–
O=C(O)c1cc2ccccc2c(S(=O)(=O)O)c1O	> 100 µM	> 100	> 100 µM	> 100	> 100	> 100	> 100 µM	> 100	> 100	> 100	–	–	–	–	–
CC1(C)OC(CCO)CN1C(=O)OCc1ccccc1 (stereo not given)	> 100 µM	> 100	> 100 µM	> 100	> 100	> 100	> 100 µM	> 100	> 100	> 100	–	–	–	–	–
Cc1ccc2c(c1)C(=O)/C(=C\c1ccc(Cl)cc1)CCS2(=O)=O	18.3 µM	15.6	14 µM	3.49	> 42.5	9.09	4.52 µM	5.02	8.15	7.8	–	–	–	–	–
O=CN(O)CC(=O)O	> 100 µM	> 100	> 100 µM	> 100	> 100	> 100	> 100 µM	> 100	> 100	> 100	–	–	–	–	–
COn1cc(CO)c2ccccc21	> 100 µM	> 100	> 100 µM	> 100	42.5	> 100	> 100 µM	> 100	> 100	> 100	–	–	–	–	–
COc1ccc(CCCCl)c(C2=NCCc3ccccc32)c1	> 100 µM	82.8	> 100 µM	> 100	> 100	> 100	> 100 µM	> 100	> 100	45	–	–	–	–	–
COc1cc(/C=C/c2cc(=O)cc(/C=C/c3ccc(O)c(OC)c3)o2)ccc1O	> 100 µM	> 100	> 100 µM	> 100	> 100	> 100	> 100 µM	> 100	> 100	> 100	–	–	–	–	–
Cc1ccc(C(=O)c2[nH]c(Nc3cc(C)ccn3)c(C(=S)Nc3ccccc3)c2N)cc1	> 100 µM	> 100	> 100 µM	> 100	> 100	> 100	> 100 µM	> 100	> 100	> 100	–	–	–	–	–
O=C(/C=C1\C[C@H]2C=Nc3ccccc3C(=O)N2C1)NCCCCCNC(=O)/C=C1\C[C@H]2C=Nc3ccccc3C(=O)N2C1	16.1 µM	> 21	33.6 µM	3.42	33.7	9.05	> 49.9 µM	36.6	27.4	> 51	–	–	–	–	–
